# Source: patent publication US8263344B2, “Compounds regulating calreticulin, KDEL receptor and/or Erp-57 cell surface exposure and uses thereof to evaluate the efficiency of a cancer treatment” (Institut Gustave Roussy, priority 2006, dated 2012)
# Peptide text beside a SMILES is read from it. * marks the point of attachment. Cbz = O=C(OCc1ccccc1)*; CH2F = FC*
# Assays:
# CT26 cells [1] = test: Fluorescence detection of cell surface CRT; type: cell-based, murine
# Description: CT26 cells were cultured at 37° C. under 5% CO2 in RPMI 1640 medium supplemented with 10% FCS, penicillin, streptomycin, 1 mM pyruvate and 10 mM HEPES in the presence of doxorubicin (DX; 24 h, 25 μM), mitoxantrone (Mitox; 24 h, 1 μM, Sigma), idarubicin (24 h, 1 μM, Aventis, France), mitomycin C (30 μM, 48 h; Sanofi-Synthelabo, France), and/or zVAD-fmk (50 μM, 24 h; Bachem), tunicamycin (24 h, 65 μM), thapsigargin (24 h, 30 μM), brefeldin A (24 h, 50 μM, Sigma), etoposide (48 h, 25 μM, Tava classics), MG132 (48 h, 10 μM), ALLN (48 h, […]), betulinic acid (24 h, 10 μM), Hoechst 33343 (24 h, 0.2 μM), camptothecine (24 h, 15 μM), lactacystin (48 h, 60 μM), BAY 11-8072 (24 h, 30 μM), staurosporine (24 h, 1.5 μM), bafilomycin A1 (48 h, 300 nM), arsenic trioxide (24 h, 30 μM), C2-ceramide (C2-C; 24 h, 60 μM), calyculin A (48 h, 30 nM), or tautomycin (48 h, […], Sigma) and/or salubrinal (48 h, […], Calbiochem).
# CT26 cells (on a glass slide or in 12-well plates) were first washed with FACS buffer (1×PBS, 5% fetus bovine serum, and 0.1% sodium azide) and then incubated with rabbit anti-mouse CRT antibody (1:100, Stressgen) in FACS buffer at 4° C. for 30 min. Cells reacted with anti-rabbit IgG (H+L) Alexa fluor 488-conjugates (1:500) in FACS buffer at 4° C. for 30 min. After washing three times with FACS buffer, surface CRT was detected by cytofluorometric analysis on a FACS Vantage. In some experiments, cells were fixed with 4% paraformaldehyde, counterstained with Hoechst (2 μM; Sigma), followed by fluorescence microscopic assessment with a Leica IRE2 microscope equipped with a DC300F camera.
# CT26 tumours [2] = test: Single intratumoural injection into established CT26 tumours, athymic mice; parameters: species or system nu/nu Balb/c mice; conditions: mouse, in vivo
# CT26 tumours [3] = test: Single intratumoural injection into established CT26 tumours, immunocompetent mice; type: in vivo, BALB/c mice
# CT26 tumour cells = test: Anti-tumour vaccination with treated (dying) CT26 cells and challenge with live tumour cells; type: in vivo, BALB/c mice; conditions: for immunogenic apoptosis / immunogenic cell death (protection against tumour growth): dying CT26 cells injected into one flank, rechallenge with live tumour cells in opposite flank 8 days later
# CT26 cells [4] = test: Phagocytosis of tumour cells by dendritic cells (DC); type: cell-based, BALB/c mice
# Description: BM cells were flushed from the tibias and femurs of BALB/c mice with culture medium composed of RPMI 1640 medium (Invitrogen Life Technologies) supplemented with 10% heat-inactivated FBS (Invitrogen), sodium pyruvate, 50 μM 2-ME (Sigma), 10 mM HEPES (pH 7.4), and penicillin/streptomycin (Invitrogen). After one centrifugation, BM cells were resuspended in Tris-ammonium chloride for 2 min to lyse RBC. After one more centrifugation, BM cells (1×10^6 cells/ml) were cultured in medium supplemented with 100 ng/ml recombinant mouse FLT3 ligand (R&D systems) in 6-well plates (Costar Corning). After 7 days, the non-adherent and loosely adherent cells were harvested with Versene, washed and transferred in 12-well plates (1.5×10^6 cells/plate) for cocultures with tumour cells.
# In 12-well plates, […] adherent CT26 cells were labelled with Celltracker Green (Calbiochem) and then incubated with drugs. In some experiments viable CT26 were coated with 2 μg/10^6 cells of chicken anti-CRT antibody (ABR affinity bioreagents) or an isotype control for 30 min prior to washing and feeding to dendritic cells Cs. Alternatively CT26 cells were coated with 2 μg/10^6 cells of rCRT on ice for 30 min and washed twice prior to addition to dendritic cells. Cells were then harvested, washed three times with medium supplemented with FBS and cocultured with immature DC for 2 hours at a ratio of 1:1 and 1:5. At the end of the incubation, cells were harvested with versene, pooled with non-adherent cells present in the supernatant, washed and stained with CD11c-FITC antibody. Phagocytosis was assessed by FACS analysis of double positive cells. Phagocytic indexes refer to the ratio between values obtained at 4° C. and values obtained at 37° C. of co-incubation between DC and tumour cells.
# CT26 cells [5] = test: Biotinylation of cell surface proteins, 2D gel electrophoresis and mass spectrometry
# HeLa cells = test: Surface ERp57 detection (immunofluorescence, flow cytometry); type: cell-based, human; conditions: 2 h, MTX 1 μM
# Description: HeLa cells were cultured on cover slips (in RPM1160 medium supplemented with 10% fetal calf serum, L-glutamine and antibiotics), in the absence (control) or in the presence of 1 μM mitoxantrone (MTX, Sigma) for 2 h. For the intracellular stainings, HeLa cells were fixed and permeabilised by means of Cytofix/Cytoperm kit from Becton Dickinson according to the manufacturer's instructions. For the surface stainings, HeLa cells were fixed with paraformadehyde (4% w/v) on ice for 5 min. […] Nuclei were labelled with DAPI mounting medium (Vectashield). Fluorescence microscopy was analyzed with a Leica IRE2 equipped with a DC300F camera. Size bars represent 10 μm.
# HeLa cells were treated with or without mitoxantrone (MTX, 1 μM) or tautomycin (Tau, 150 nM, Sigma) for 2 h. Cells were washed twice with PBS and fixed in PFA (4% w/v) for 5 min. HeLa cells were stained with an antibody against Erp57 (pAb from Abcam, ab10827) at 1:200 dilution or isotype control, in staining buffer (PBS, 1% FCS) for 30 min on ice, followed by washing. An anti-rabbit Alexa fluor 488 immunoglobulin conjugate (Molecular Probes-Invitrogen) diluted at 1:500 was added for an additional 30 min on ice before washing and analysed by flow cytometry (FACScan, Becton Dickinson). […] The CellQuest software was used to analyse the mean fluorescence intensity (MFI) and the percentage of ERp57 positive cells.
# FIG. 12: ERp57 exposure depends on the activation of a caspase. • (A) HeLa cells were treated with MTX (1 μM) for 2 h in the presence or absence of 50 μM zVAD.fmk. The MFI of surface Erp57 positive cells was analysed as described in FIG. 9. • (B) HCT116 parental cells stably transfected with either a vector encoding p35 (Stennicke et al., 2002; Date et al., 2003) or with a PCMV vector (Sigma) as control, were treated with MTX (1 μM) for 2 h. The MFI of surface Erp57 positive cells was analysed as described in FIG. 9. • (C) HCT116 cells were pre-incubated in the presence of 50 μM biotinylated VAD.fmk (Calbiochem) for 2 h. […]
compound,measurement,setting,value
CO[C@@]12[C@H](COC(N)=O)C3=C(C(=O)C(C)=C(N)C3=O)N1C[C@@H]1N[C@@H]12 [mitomycin C],CRT exposure at the cell surface,CT26 cells [1],fail to induce ecto-CRT
same,"therapeutic effect of intratumoural injection, single agent, nu/nu mice",CT26 tumours [2],no major therapeutic effect
same,"therapeutic effect of intratumoural injection, single agent, immunocompetent mice","CT26 tumours [3]; mouse, in vivo",no major therapeutic effect
"CCCCCCCCCCCCC/C=C/[C@@H](O)[C@H](CO)NC(C)=O [C2 ceramide, C2-ceramide]",immunogenic apoptosis / immunogenic cell death (protection against tumour growth),CT26 tumour cells,failed to induce immunogenic apoptosis
5′-rCrCrGrCUrGrGrGUrCrGrArAUrCrRrArATT-3′ [specific siRNA],phagocytosis by DC of anthracyclin/mitoxantrone-treated tumour cells after blockade or knockdown of CRT,CT26 cells [4],suppressed the phagocytosis
C/C=C(/C)C(=O)O[C@H]1C(C)=C2[C@H]([C@@H]1OC(=O)CCCCCCC)[C@@](C)(OC(C)=O)C[C@H](OC(=O)CCC)[C@@]1(O)[C@H]2OC(=O)[C@@]1(C)O [thapsigargin],immunogenic apoptosis / immunogenic cell death (protection against tumour growth),CT26 tumour cells,failed to induce immunogenic apoptosis
COc1cccc2c1C(=O)c1c(O)c3c(c(O)c1C2=O)C[C@@](O)(C(=O)CO)C[C@@H]3O[C@H]1C[C@H](N)[C@H](O)[C@H](C)O1 [doxorubicin],"induction of surface CRT (factor), combined with Z-VAD-fmk","CT26 cells [5]; 4 h, doxorubicin plus Z-VAD-fmk",1.8
same,ERP57 surface exposure,"CT26 cells [5]; 4 h treatment, 2D electrophoreses",specifically induced
same,induction of surface CRT (factor),"CT26 cells [5]; short-term (4 h) treatment, biotinylated surface proteins, 2D electrophoreses",6
same,immunogenic apoptosis / immunogenic cell death (protection against tumour growth),CT26 tumour cells,elicited immunogenic cell death
same,phagocytosis of treated tumour cells by DC,CT26 cells [4]; within a few hours after treatment,acquired the property to be phagocytosed by DC
CO[C@H]([C@H](O)CC(=O)[C@@H](C)[C@@H](O)CC[C@@H](C)[C@@H]1O[C@]2(CC[C@@H](C)[C@H](CC[C@H](C)C(C)=O)O2)CC[C@@H]1C)[C@H](OC(=O)C[C@@H](O)C1=C(C)C(=O)OC1=O)C(C)C [tautomycin],CRT exposure at the cell surface,CT26 cells [1],efficiently induced
same,immunogenic cell death by PP1/GADD34 inhibition alone,"CT26 tumour cells; mouse, in vivo",not sufficient to induce immunogenic cell death
same,"therapeutic effect of intratumoural injection, single agent, nu/nu mice",CT26 tumours [2],no major therapeutic effect
same,"therapeutic effect of intratumoural injection, single agent, immunocompetent mice",CT26 tumours [3]; established 14-day-old CT26 tumours,no major therapeutic effect
same,"therapeutic effect combined with a cell death inducer (etoposide or mitomycin C), immunocompetent mice",CT26 tumours [3]; intratumoural,stable disease or complete tumour regression
same,surface exposure of ERp57,HeLa cells; Tau 150 nM,stimulates the surface exposure
CCCCCCCCCCCCC/C=C/[C@@H](O)[C@H](CO)NC(=O)CCCCCCCCCCCCCCC [C16-ceramide],ecto-CRT after C16-ceramide,"CT26 cells [1]; 30 μM, 2 h",rapidly induces ecto-CRT
COC(=O)C[C@H](NC(=O)[C@H](C)NC(=O)[C@@H](NC(=O)OCc1ccccc1)C(C)C)C(=O)CF [Z-VAD-fmk] (Cbz-Val-Ala-Asp(OMe)-CH2F),effect on immunogenicity of doxorubicin-elicited cell death,CT26 tumour cells; doxorubicin plus Z-VAD-fmk,reduces the immunogenicity
same,effect on ERp57 exposure induced by MTX,HeLa cells,abolished
C/C1=C/C(=O)O[C@@H]2C[C@@H](CC[C@H](C)/C=C\C=C\CC1)O[C@@](O)([C@@H]1CSC(=O)N1)C2 [latrunculin A],effect on CRT exposure induced by anthracyclins and PP1/GADD34 inhibitors,CT26 cells [1]; pre-incubation for 1 h with the inhibitor,abolished
COc1cc([C@@H]2c3cc4c(cc3[C@@H](O[C@@H]3O[C@@H]5CO[C@@H](C)O[C@H]5[C@H](O)[C@H]3O)[C@H]3COC(=O)[C@H]23)OCO4)cc(OC)c1O [etoposide],CRT exposure at the cell surface,CT26 cells [1],fail to induce ecto-CRT
same,immunogenic apoptosis / immunogenic cell death (protection against tumour growth),CT26 tumour cells,failed to induce immunogenic apoptosis
same,immunogenicity of sham-coated cells treated with etoposide,"CT26 tumour cells; mouse, in vivo",poorly immunogenic
same,"therapeutic effect of intratumoural injection, single agent, nu/nu mice",CT26 tumours [2],no major therapeutic effect
same,"therapeutic effect of intratumoural injection, single agent, immunocompetent mice","CT26 tumours [3]; mouse, in vivo",no major therapeutic effect
COC[C@@H]([C@H](O)[C@H](O)C(=O)NCC[C@H](C)c1nc(/C=C/C[C@@H]2O[C@]3(C[C@@H](O)[C@@H]2C)O[C@H]([C@H](C[C@H](O)[C@H](C)[C@H](O)[C@H](C)/C=C(C)/C(C)=C/C=C/C(C)=C\C#N)OC)[C@H](OP(=O)(O)O)C3(C)C)co1)N(C)C [calyculin A],CRT exposure at the cell surface,CT26 cells [1],efficiently induced
same,immunogenic cell death by PP1/GADD34 inhibition alone,"CT26 tumour cells; mouse, in vivo",not sufficient to induce immunogenic cell death
CC(=O)[C@]1(O)Cc2c(O)c3c(c(O)c2[C@@H](O[C@H]2C[C@H](N)[C@H](O)[C@H](C)O2)C1)C(=O)c1ccccc1C3=O [idarubicin],immunogenic apoptosis / immunogenic cell death (protection against tumour growth),CT26 tumour cells,elicited immunogenic cell death
CCOc1ccc(-c2nc3ccc(-c4nc5ccc(N6CCN(C)CC6)cc5[nH]4)cc3[nH]2)cc1 [Hoechst 33342],immunogenic apoptosis / immunogenic cell death (protection against tumour growth),CT26 tumour cells,failed to induce immunogenic apoptosis
CC[C@@]1(O)C(=O)OCc2c1cc1n(c2=O)Cc2cc3ccccc3nc2-1 [camptothecin],immunogenic apoptosis / immunogenic cell death (protection against tumour growth),CT26 tumour cells,failed to induce immunogenic apoptosis
tunicamycin,immunogenic apoptosis / immunogenic cell death (protection against tumour growth),CT26 tumour cells,failed to induce immunogenic apoptosis
"C[C@H]1CCC/C=C/[C@@H]2C[C@H](O)C[C@H]2[C@H](O)/C=C/C(=O)O1 [brefeldin, brefeldin A]",immunogenic apoptosis / immunogenic cell death (protection against tumour growth),CT26 tumour cells,failed to induce immunogenic apoptosis
